How the values were obtained:
large crabgrass [1] = assay: Field trial in corn, herbicide applied 3 days after planting, % weed control; type: in vivo, Digitaria sanguinalis
Description: (§1) The herbicides tested were acetochlor and s-metolachlor. Each herbicide was combined at the specified rate with either deionized water or SymMAX™ supramolecular host chemistry that is commercially available from Shotwell Hydrogenics at 15 gallons per acre (GPA). Specified rates for acetochlor were 0.5 parts per acre, 1 part per acre, and 2 parts per acre. […]
(§2) This example was conducted as a 4 replicate, RCBD (randomized control block design) in Quitman, GA. An untreated control was used as a standard that provided no weed control and no phytotoxicity. All treatments were compared to the untreated control. Counted dead weeds and living weeds were used to determine % weed control. The untreated control was also used to determine % crop phytotoxicity for the crop. Typical indications of phytotoxicity include chlorosis, stunting, epinasty, and/or leaf burn.
(§3) The trial ran for 28 days with weekly data assessments taken on % crop phytotoxicity and % weed control of three key species: palmer amaranth (Amaranthus palmeri), fall panicum (Panicum dichotomiflorum) and large crabgrass (Digitaria sanguinalis). The test field was over seeded with weed seed obtained from the University of Georgia prior to corn planting. Treatments were applied 3 days after planting as a broadcast application at various rates ranging from about 0.5 parts per acre to about 2 parts per acre. Tables 1-4 show the % weed control when the weeds are treated with acetachlor. Tables 4-8 show the % weed control when the weeds are treated with s-metolachlor.

palmer amaranth [2] = assay: as above; type: in vivo, Amaranthus palmeri
Description: as §1, §2, §3

fall panicum [3] = assay: as above; type: in vivo, Panicum dichotomiflorum
Description: as §1, §2, §3

fall panicum [4] = assay: Field trial in corn at V3, broadcast treatment on 2-4 inch weeds, % weed control; type: in vivo, Panicum dichotomiflorum
From the text: (§4) The herbicides tested were glufosinate, glyphosate, and mesotrione. Each herbicide was combined at the specified rate with either deionized water or SymMAX™ supramolecular host water mixture commercially available from Shotwell Hydrogenics at 15 gallons per acre (GPA). Specified rates for glufosinate were 22 ounces per acre, 11 ounces per acre, and 5.5 ounces per acre. Specified rates for glyphosate were 22 ounces per acre, 11 ounces per acre, and 5.5 ounces per acre. Specified rates for mesotrione were 3 ounces per acre, 2 ounces per acre, and 1 ounce per acre.
as §2
(§5) The trial ran for 14 days with weekly data assessments taken on % crop phytotoxicity and % weed control of four key species: palmer amaranth (Amaranthus palmeri), ivyleaf morning glory (Ipomoea hederacea), fall panicum (Panicum dichotomiflorum) and large crabgrass (Digitaria sanguinalis The test field was over seeded with weed seed obtained from the University of Georgia prior to corn planting. Treatments were applied as a broadcast treatment when corn had reached physiological growth stage V3 and weeds were in the 2-4″ size range. Treatments were applied at various rates ranging from about 1 ounce per acre to about 22 ounces per acre. Tables 9-10 show the % weed control when the weeds are treated with glufosinate. Tables 11-12 show the % weed control when the weeds are treated with glyphosphate. Tables 13-14 show the % weed control when the weeds are treated with mesotrione.

ivyleaf morning glory = assay: as above; type: in vivo, Ipomoea hederacea
From the text: as §4, §2, §5

palmer amaranth [5] = assay: as above; type: in vivo, Amaranthus palmeri
From the text: as §4, §2, §5

large crabgrass [6] = assay: as above; type: in vivo, Digitaria sanguinalis
From the text: as §4, §2, §5

[7] = 7 days, acetochlor 0.5 part/acre
[8] = 7 days, acetochlor 2 parts/acre
[9] = 14 days, acetochlor 0.5 part/acre
[10] = 14 days, acetochlor 1 part/acre
[11] = 14 days, acetochlor 2 parts/acre
[12] = 21 days, acetochlor 0.5 part/acre
[13] = 21 days, acetochlor 1 part/acre
[14] = 21 days, acetochlor 2 parts/acre
[15] = 28 days, acetochlor 0.5 part/acre
[16] = 28 days, acetochlor 1 part/acre
[17] = 28 days, acetochlor 2 parts/acre
[18] = 7 days, glufosinate 5.5 ounces/acre
[19] = 7 days, glufosinate 11 ounces/acre
[20] = 7 days, glufosinate 22 ounces/acre
[21] = 14 days, glufosinate 5.5 ounces/acre
[22] = 14 days, glufosinate 11 ounces/acre
[23] = 14 days, glufosinate 22 ounces/acre

CCOCN(C(=O)CCl)c1c(C)cccc1CC [Acetochlor, acetochlor]
% WEED CONTROL FOR LARGE CRABGRASS (large crabgrass [1]; [7]): 69.5% | % WEED CONTROL FOR LARGE CRABGRASS (large crabgrass [1]; 7 days, acetochlor 1 part/acre): 74.5% | % WEED CONTROL FOR LARGE CRABGRASS (large crabgrass [1]; [8]): 87.0% | % WEED CONTROL FOR LARGE CRABGRASS (large crabgrass [1]; [9]): 45.8% | % WEED CONTROL FOR LARGE CRABGRASS (large crabgrass [1]; [10]): 49.0% | % WEED CONTROL FOR LARGE CRABGRASS (large crabgrass [1]; [11]): 74.5% | % WEED CONTROL FOR LARGE CRABGRASS (large crabgrass [1]; [12]): 45.3% | % WEED CONTROL FOR LARGE CRABGRASS (large crabgrass [1]; [13]): 43.0% | % WEED CONTROL FOR LARGE CRABGRASS (large crabgrass [1]; [14]): 73.3% | % WEED CONTROL FOR LARGE CRABGRASS (large crabgrass [1]; [15]): 47.8% | % WEED CONTROL FOR LARGE CRABGRASS (large crabgrass [1]; [16]): 48.0% | % WEED CONTROL FOR LARGE CRABGRASS (large crabgrass [1]; [17]): 92.1% | % WEED CONTROL FOR PALMER AMARANTH (palmer amaranth [2]; [7]): 87.0% | % WEED CONTROL FOR PALMER AMARANTH (palmer amaranth [2]; 7 days, acetochlor 1 part/acre): 88.5% | % WEED CONTROL FOR PALMER AMARANTH (palmer amaranth [2]; [8]): 93.3% | % WEED CONTROL FOR PALMER AMARANTH (palmer amaranth [2]; [9]): 82.3% | % WEED CONTROL FOR PALMER AMARANTH (palmer amaranth [2]; [10]): 87.0% | % WEED CONTROL FOR PALMER AMARANTH (palmer amaranth [2]; [11]): 97.7% | % WEED CONTROL FOR PALMER AMARANTH (palmer amaranth [2]; [12]): 61.7% | % WEED CONTROL FOR PALMER AMARANTH (palmer amaranth [2]; [13]): 81.0% | % WEED CONTROL FOR PALMER AMARANTH (palmer amaranth [2]; [14]): 90.0% | % WEED CONTROL FOR PALMER AMARANTH (palmer amaranth [2]; [15]): 44.5% | % WEED CONTROL FOR PALMER AMARANTH (palmer amaranth [2]; [16]): 67.4% | % WEED CONTROL FOR PALMER AMARANTH (palmer amaranth [2]; [17]): 99.7% | % WEED CONTROL FOR FALL PANICUM (fall panicum [3]; [7]): 65.5% | % WEED CONTROL FOR FALL PANICUM (fall panicum [3]; 7 days, acetochlor 1 part/acre): 69.3% | % WEED CONTROL FOR FALL PANICUM (fall panicum [3]; [8]): 87.3% | % WEED CONTROL FOR FALL PANICUM (fall panicum [3]; [9]): 49.3% | % WEED CONTROL FOR FALL PANICUM (fall panicum [3]; [10]): 53.0% | % WEED CONTROL FOR FALL PANICUM (fall panicum [3]; [11]): 78.0% | % WEED CONTROL FOR FALL PANICUM (fall panicum [3]; [12]): 37.6% | % WEED CONTROL FOR FALL PANICUM (fall panicum [3]; [13]): 40.9% | % WEED CONTROL FOR FALL PANICUM (fall panicum [3]; [14]): 81.3% | % WEED CONTROL FOR FALL PANICUM (fall panicum [3]; [15]): 60.0% | % WEED CONTROL FOR FALL PANICUM (fall panicum [3]; [16]): 57.3% | % WEED CONTROL FOR FALL PANICUM (fall panicum [3]; [17]): 88.0%

CP(=O)(O)CCC(N)C(=O)O (stereo not drawn) [Glufosinate, glufosinate]
% WEED CONTROL FOR FALL PANICUM (fall panicum [4]; [18]): 100.0% | % WEED CONTROL FOR FALL PANICUM (fall panicum [4]; [19]): 99.5% | % WEED CONTROL FOR FALL PANICUM (fall panicum [4]; [20]): 100.0% | % WEED CONTROL FOR FALL PANICUM (fall panicum [4]; [21]): 83.3% | % WEED CONTROL FOR FALL PANICUM (fall panicum [4]; [22]): 92.7% | % WEED CONTROL FOR FALL PANICUM (fall panicum [4]; [23]): 95.5% | % WEED CONTROL FOR IVYLEAF MORNINGLORY (ivyleaf morning glory; [18]): 16.5% | % WEED CONTROL FOR IVYLEAF MORNINGLORY (ivyleaf morning glory; [19]): 52.3% | % WEED CONTROL FOR IVYLEAF MORNINGLORY (ivyleaf morning glory; [20]): 70.1% | % WEED CONTROL FOR IVYLEAF MORNINGLORY (ivyleaf morning glory; [21]): 5.1% | % WEED CONTROL FOR IVYLEAF MORNINGLORY (ivyleaf morning glory; [22]): 41.2% | % WEED CONTROL FOR IVYLEAF MORNINGLORY (ivyleaf morning glory; [23]): 64.0% | % WEED CONTROL FOR PALMER AMARANTH (palmer amaranth [5]; [18]): 51.5% | % WEED CONTROL FOR PALMER AMARANTH (palmer amaranth [5]; [19]): 77.9% | % WEED CONTROL FOR PALMER AMARANTH (palmer amaranth [5]; [20]): 82.6% | % WEED CONTROL FOR PALMER AMARANTH (palmer amaranth [5]; [21]): 29.0% | % WEED CONTROL FOR PALMER AMARANTH (palmer amaranth [5]; [22]): 69.3% | % WEED CONTROL FOR PALMER AMARANTH (palmer amaranth [5]; [23]): 76.1% | % WEED CONTROL FOR LARGE CRABGRASS (large crabgrass [6]; [18]): 100.0% | % WEED CONTROL FOR LARGE CRABGRASS (large crabgrass [6]; [19]): 100.0% | % WEED CONTROL FOR LARGE CRABGRASS (large crabgrass [6]; [20]): 100.0% | % WEED CONTROL FOR LARGE CRABGRASS (large crabgrass [6]; [21]): 91.8% | % WEED CONTROL FOR LARGE CRABGRASS (large crabgrass [6]; [22]): 99.5% | % WEED CONTROL FOR LARGE CRABGRASS (large crabgrass [6]; [23]): 100.0%

From patent publication US20230109010A1, “PESTICIDE COMPOSITIONS WITH SUPRAMOLECULAR STRUCTURES FOR AGRICULTURAL USE” (BPS JUST ENERGY TECHNOLOGY, LLC, priority 2020, published 2023)
